# Results as given in patent US6436942B1, “Enantiomers of 1[(4-chloro-phenyl) phenylmethyl]-4-[(4-methylphenyl) sulfony]piperazine” (UCB, S.A., priority 1993, dated 2002).
# Structures can show the parent of a compound that is named as a salt. Where two headings read alike, the source gives them in different places.
# What was measured:
# [1] = biological target: T1, rat cortex histamine H1 receptor (Rattus norvegicus, UniProt P31390); test: Affinity towards the histamine H1 receptor ([3H]mepyramine competitive binding); conditions: cologarithm of Ki, mean ± deviation (n=2); [3H]mepyramine 4.5×10^−9 mole/l, rat cortex membranes
# T1 construct: the samples containing 0.5 mg of cortex membrane protein; from tissue; host or cells: cerebral cortex membranes of male Sprague-Dawley rats
# T1 sequence (P31390 whole entry): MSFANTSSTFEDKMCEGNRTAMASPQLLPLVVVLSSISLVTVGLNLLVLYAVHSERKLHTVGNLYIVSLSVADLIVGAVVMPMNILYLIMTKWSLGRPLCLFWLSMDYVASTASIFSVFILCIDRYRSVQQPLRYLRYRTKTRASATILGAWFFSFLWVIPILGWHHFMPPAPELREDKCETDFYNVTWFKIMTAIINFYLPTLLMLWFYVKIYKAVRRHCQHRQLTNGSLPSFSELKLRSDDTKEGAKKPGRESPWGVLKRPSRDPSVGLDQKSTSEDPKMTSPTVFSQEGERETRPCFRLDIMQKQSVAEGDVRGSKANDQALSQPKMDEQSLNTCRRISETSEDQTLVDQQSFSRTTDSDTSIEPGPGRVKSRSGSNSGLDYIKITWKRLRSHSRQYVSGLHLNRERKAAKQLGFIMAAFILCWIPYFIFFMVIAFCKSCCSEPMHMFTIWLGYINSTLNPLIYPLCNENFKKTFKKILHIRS
# Description: Cerebral cortexes from male Sprague-Dawley rats are homogenized in 2 ml per cortex of a 20 mM Tris-HCl buffer (pH 7.4) containing 250 mM sucrose. The homogenates are centrifuged at 30,000 g for 30 minutes at 4° C. and the centrifugation pellets are resuspended in the same fresh buffer and preserved in liquid nitrogen. […] The bound [^3H]mepyramine is separated from the free radioligand by rapid filtration of the sample through a Whatman GF/C filter, previously impregnated for at least 2 hours with a 0.1% solution of polyethyleneimine, in order to reduce the possibility of non-specific binding of the radioligand with other proteins. […] The radioactivity thereof is then measured using a β particle Tri-carb 1090 scintillation counter (Camberra-Packard, Belgium). Non-specific binding has been estimated in the presence of a 10 μM aqueous solution of cetirizine and represents 30% of the total binding. […] DE LEAN et al., Mol. Pharmacol., 21 (1982), 5-16) and their inhibition constants (Ki) are calculated by means of the CHENG and PRUSOFF equation (Y. C. CHENG and W. H. PRUSOFF, Biochem. Pharmacol., 22 (1973), 3099-3108). Table III below gives the values of pKi (cologarithm of Ki) calculated from Ki (mean value±deviation with respect to the mean (n=2)), for the compounds tested.
# mice = test: Toxicity: lethal dose in mice after intraperitoneal injection; format: in vivo; conditions: dose causing death in 2 out of 3 mice
# [2] = test system: isolated guinea pig trachea; test: Peripheral antihistaminic properties: inhibition of histamine-induced contraction of isolated guinea pig trachea; conditions: mean ± standard deviation, histamine-contracted guinea pig trachea; for pA2: competitive inhibition; for pD2′: non-competitive inhibition
# Description: Tracheas of Dunkin-Hartley guinea pigs of both sexes (weight: 250-500 g) are excised and cut into four fragments of three segments of cartilage each. These fragments are immersed in a Krebs-Heinseleit solution at 37° C. containing 10^−7 mole/l of atropine and 10^−5 mole/l of indomethacin and are stretched with a weight of 1 g. The solution is aerated with a current of oxygen containing 5% carbon dioxide. Each change in tension, is recorded with an isometric force indicator K 30 (from Hugo Sachs Elektronik) coupled to an amplifier and a Sanborn 7700 recorder (from Hewlett Packard). The preparation (i.e. trachea fragment) so obtained is allowed to stabilize for one hour during which the base line for the tension is readjusted if necessary.
# After washing and stabilization, a cumulative curve showing the effects of histamine, as a function of its concentration (10^−6, 10^−5 and 10^−4 mole/l) is plotted as a control.
# For the same preparation, four further cumulative curves showing the effects of histamine as a function of its concentration are then recorded at four increasing concentrations of each compound to be tested.
# The compounds to be tested are incorporated in the medium five minutes before the histamine. Between each measurement, the preparations are washed at least four times with an interval of five minutes between each washing. Each compound is tested on at least 6 trachea fragments. When the last curve is plotted, additional concentrations of 3.2×10^−4 and 10^−3 mole/l of histamine are added in order to determine whether the antagonism is competitive or not.
# [3] = test system: cutaneous reaction induced by histamine; test: Inhibition of the cutaneous reaction induced by histamine in dogs; format: in vivo, dog; conditions: for Area of wheals: nine Beagle dogs, mean ± SD; for Wheal area as percent of reference: with respect to reference area (100%); for inhibition at 0.15 mg/kg: Canis lupus familiaris
# Description: The dog is considered, among the animal species, to be the species having a sensitivity to histamine relatively close to that of man.
# In this test, nine Beagle dogs are used, having an average weight of 12.6 kg and of about two years of age and of which the abdomens have been locally shaved. 50 μl of a 0.9% aqueous solution of sodium chloride, containing 10 μg/ml of histamine, is injected intradermally into the shaved area. Simultaneously, a solution of Evans blue dye (60 mg/ml in a 0.9% aqueous solution of sodium chloride), is administered by intravenous injection to each dog at a dose of 0.1 ml/kg. An allergic reaction develops at the intradermal injection site and there appears a wheal, the area of which is measured exactly 30 minutes after the two injections. This area is taken as the reference. area (100%)
# The compound to be tested is then administered orally, at a dose of 0.15 mg/kg (0.32×10^−6 mole/kg). 0.5, 1.5, 3, 6, 9, 12, 24 and 32 hours after administration of the compound to be tested, new wheals are induced at different abdominal locations by injecting histamine. Each time, the area of the induced wheal is measured 30 minutes after the injection of histamine.
# The antihistaminic activity of a compound on the cutaneous allergic reaction is determined by measuring the reduction in the area of the induced wheals, following administration of the compound, with respect to the area of the reference wheal, and then expressed in percent.
# [4] = 0.5 hours after 0.15 mg/kg oral
# [5] = 1.5 hours after 0.15 mg/kg oral
Compound,Ki [1] [nM],Lethal dose (mice) [mol/kg],pA2 [2],further results
"Cc1cccc(CN2CCN(C(c3ccccc3)c3ccc(Cl)cc3)CC2)c1 (single isomer, unassigned) [C, levorotatory dihydrochloride of 1-[(4-chlorophenyl)phenylmethyl]-4-[(3-methylphenyl)methyl]piperazine]",631,>0.001,,
"Cc1cccc(CN2CCN(C(c3ccccc3)c3ccc(Cl)cc3)CC2)c1 (single isomer, unassigned) [D, dextrorotatory dihydrochloride of 1-[(4-chlorophenyl)phenylmethyl]-4-[(3-methylphenyl)methyl]piperazine]",63.1,>0.001,,
"CC(C)(C)c1ccc(CN2CCN(C(c3ccccc3)c3ccc(Cl)cc3)CC2)cc1 (single isomer, unassigned) [E, levorotatory dihydrochloride of 1-[(4-tert-butylphenyl)methyl]-4-[(4-chlorophenyl)phenylmethyl]piperazine]",1260,0.001,,
"CC(C)(C)c1ccc(CN2CCN(C(c3ccccc3)c3ccc(Cl)cc3)CC2)cc1 (single isomer, unassigned) [F, dextrorotatory dihydrochloride of 1-[(4-tert-butylphenyl)methyl]-4-[(4-chlorophenyl)phenylmethyl]piperazine]",631,>0.001,,
"OCCOCCN1CCN(C(c2ccccc2)c2ccc(Cl)cc2)CC1 (single isomer, unassigned) [G, levorotatory dihydrochloride of 2-[2-[4-[(4-chlorophenyl)phenylmethyl]-1-piperazinyl]ethoxy]ethanol]",25.1,0.0006,6.5 ± 0.3,
"OCCOCCN1CCN(C(c2ccccc2)c2ccc(Cl)cc2)CC1 (single isomer, unassigned) [H, dextrorotatory dihydrochloride of 2-[2-[4-[(4-chlorophenyl)phenylmethyl]-1-piperazinyl]ethoxy]ethanol]",2,0.0006,,pD2′ [2]: 6.7 ± 0.1
"OCCOCCOCCN1CCN(C(c2ccccc2)c2ccc(Cl)cc2)CC1 (single isomer, unassigned) [I, levorotatory dihydrochloride of 2-[2-[2-[4-[(4-chlorophenyl)phenylmethyl]-1-piperazinyl]ethoxy]ethoxy]ethanol]",79.4,0.0001,6.5 ± 0.4,
"OCCOCCOCCN1CCN(C(c2ccccc2)c2ccc(Cl)cc2)CC1 (single isomer, unassigned) [J, dextrorotatory dihydrochloride of 2-[2-[2-[4-[(4-chlorophenyl)phenylmethyl]-1-piperazinyl]ethoxy]ethoxy]ethanol]",2.51,0.0001,,pD2′ [2]: 6.0 ± 0.3
"COC(=O)COCCN1CCN(C(c2ccccc2)c2ccc(Cl)cc2)CC1 (single isomer, unassigned) [M, levorotatory dimaleate of methyl 2-[2-[4-[(4-chlorophenyl)phenylmethyl]-1-piperazinyl]ethoxy]acetate]",3.16,,,
"COC(=O)COCCN1CCN(C(c2ccccc2)c2ccc(Cl)cc2)CC1 (single isomer, unassigned) [N, dextrorotatory dimaleate of methyl 2-[2-[4-[(4-chlorophenyl)phenylmethyl]-1-piperazinyl]ethoxy]acetate]",79.4,,,
"O=C(O)COCCN1CCN(C(c2ccccc2)c2ccc(Cl)cc2)CC1 (single isomer, unassigned) [O, levorotatory dihydrochloride of 2-[2-[4-[(4-chlorophenyl)phenylmethyl]-1-piperazinyl]ethoxy]acetic acid]",39.8,,6.6 ± 0.3,
"O=C(O)COCCN1CCN(C(c2ccccc2)c2ccc(Cl)cc2)CC1 (single isomer, unassigned) [P, dextrorotatory dihydrochloride of 2-[2-[4-[(4-chlorophenyl)phenylmethyl]-1-piperazinyl]ethoxy]acetic acid]",6.31,,,"pD2′ [2]: 6.3 ± 0.2; Area of wheals [3, 4]: 65 ± 10 mm^2; Wheal area as percent of reference [3, 4]: 85%; reduction in the area of the wheals ([3]; 30 minutes after administration, 0.15 mg/kg oral, dogs): 15%; Area of wheals [3, 5]: 44 ± 12 mm^2; Wheal area as percent of reference [3, 5]: 58%; Area of wheals ([3]; 3 hours after 0.15 mg/kg oral): 33 ± 10 mm^2; Wheal area as percent of reference ([3]; 3 hours after 0.15 mg/kg oral): 43%; Area of wheals ([3]; 6 hours after 0.15 mg/kg oral): 41 ± 13 mm^2; Wheal area as percent of reference ([3]; 6 hours after 0.15 mg/kg oral): 54%; Area of wheals ([3]; 9 hours after 0.15 mg/kg oral): 41 ± 10 mm^2; Wheal area as percent of reference ([3]; 9 hours after 0.15 mg/kg oral): 54%; Area of wheals ([3]; 12 hours after 0.15 mg/kg oral): 41 ± 10 mm^2; Wheal area as percent of reference ([3]; 12 hours after 0.15 mg/kg oral): 54%; Area of wheals ([3]; 24 hours after 0.15 mg/kg oral): 45 ± 5 mm^2; Wheal area as percent of reference ([3]; 24 hours after 0.15 mg/kg oral): 59%; Area of wheals ([3]; 32 hours after 0.15 mg/kg oral): 51 ± 5 mm^2; Wheal area as percent of reference ([3]; 32 hours after 0.15 mg/kg oral): 67%; inhibition at 0.15 mg/kg ([3]; 3 h, after three hours, 0.15 mg/kg oral, dogs, read-out: Maximum inhibition (of wheal area)): 57%; inhibition at 0.15 mg/kg ([3]; after 32 hours, 0.15 mg/kg oral, dogs, read-out: inhibition (of wheal area), statistically significant): 33%"
"Clc1ccc(C(c2ccccc2)N2CCNCC2)cc1 (single isomer, unassigned; (+)) [B, (+)-1-[(4-chlorophenyl)phenylmethyl]piperazine]",,,5.0 ± 0.1,
"NC(=O)COCCN1CCN(C(c2ccccc2)c2ccc(Cl)cc2)CC1 (single isomer, unassigned; (+)) [Compound L, (+)-2-[2-[4-[(4-chlorophenyl)phenylmethyl]-1-piperazinyl]ethoxy]acetamide]",158,0.001,6.4 ± 0.2,
"Clc1ccc(C(c2ccccc2)N2CCNCC2)cc1 (single isomer, unassigned; (-)) [A, (−)-1-[(4-chlorophenyl)phenylmethyl]piperazine]",,,5.7 ± 0.4,
"NC(=O)COCCN1CCN(C(c2ccccc2)c2ccc(Cl)cc2)CC1 (single isomer, unassigned; (-)) [K, (−)-2-[2-[4-[(4-chlorophenyl)phenylmethyl]-1-piperazinyl]ethoxy]acetamide]",2.51,0.0003,,pD2′ [2]: 6.3 ± 0.2
